From US20220089592A1, “IMIDAZO[1,2-A]PYRIDINYL DERIVATIVES AS IRAK4 INHIBITORS” (priority 2019, published 2022)
Structures can show the parent of a compound that is named as a salt.

Tests used:
[1] = target: T1, IRAK4 (Homo sapiens, UniProt Q9NWZ3); test: 2-hour 10 μM ATP Biochemical Assay (MesoScale Detection format; IRAK4 phosphorylation of biotin labeled IRAK1 activation loop peptide); settings: IRAK4 MSD BIOCHEMICAL (10 μM ATP) IC50 (μM), 1 nM IRAK4, 2 hours
T1 sequence (Q9NWZ3 1-460): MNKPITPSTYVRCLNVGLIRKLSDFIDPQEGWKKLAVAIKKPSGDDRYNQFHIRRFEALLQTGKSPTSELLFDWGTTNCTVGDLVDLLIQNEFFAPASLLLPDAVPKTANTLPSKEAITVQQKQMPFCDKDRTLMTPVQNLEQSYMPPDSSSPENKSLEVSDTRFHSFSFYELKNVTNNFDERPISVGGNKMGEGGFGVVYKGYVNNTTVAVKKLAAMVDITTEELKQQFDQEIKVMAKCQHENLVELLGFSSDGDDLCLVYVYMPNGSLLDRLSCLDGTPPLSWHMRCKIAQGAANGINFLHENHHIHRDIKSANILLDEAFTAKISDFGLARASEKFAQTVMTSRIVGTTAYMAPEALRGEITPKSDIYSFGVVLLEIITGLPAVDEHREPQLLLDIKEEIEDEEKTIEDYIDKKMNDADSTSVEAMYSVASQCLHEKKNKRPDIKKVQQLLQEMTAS
Procedure: The 2-hour 10 μM ATP Biochemical Assay employs a MesoScale Detection (MSD) format.
The activity is quenched with 11 μl of 70 mM EDTA, pH 8.
To detect the phosphorylated biotinylated peptide substrate, 30 μl of the quenched reaction mixture is added to equivalent wells of a 384 well streptavidin coated MesoScale plate (Meso Scale Discovery #L21SA-1). After a 1 hour incubation of the plate for 1 hour at room temperature with gentle mixing, the plate wells are washed 3 times with 50 mM Tris, pH 7.5, 150 mM NaCl, 0.02% Tween-20.
A 25 μl volume of 1:500 anti-P-Threonine Rabbit polyclonal Antibody plus 1:500 Goat-anti-Rabbit Sulfo Tag Antibody (Meso Scale Discovery R32AB-1) in 50 mM Tris, pH 7.5, 150 mM NaCl, 0.02% Tween-20 plus 2% BSA is then added to each well. After a 1-hour incubation of the plate for 1 hour at room temperature with gentle mixing, the plate wells are washed, 3 times with 50 mM Tris, pH 7.5, 150 mM NaCl, 0.02% Tween-20. A 40 μl volume of 2×MSD Read Buffer (Meso Scale Discovery R92TC-1) is added to each well, and the plate is read immediately in an MSD Plate Reader (Meso Scale Discovery).

[2] = target: T1, IRAK4; test: 2-hour 1 mM ATP IRAK4 Biochemical assay (as above, but with 100 pM IRAK4 and 1 mM ATP); settings: IRAK4 MSD BIOCHEMICAL (1 mM ATP) IC50 (μM), 100 pM IRAK4, 2 hours
Procedure, shortened: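 MSD electrochemiluminescence read-out: biotinylated peptide product bound to streptavidin plates, probed with anti-P-Thr rabbit antibody and Sulfo-Tag goat anti-rabbit. Kinase reaction used 1 mM ATP and 100 pM IRAK4 over 2 hours before EDTA quench.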

## O=C(Nc1cnc2nc(C3CC3)cn2c1)c1cccc(C(F)(F)F)n1 [Example 92, N-(2-cyclopropylimidazo[1,2-a]pyrimidin-6-yl)-6-(trifluoromethyl)picolinamide]
[1]
  IC50: 0.076 µM

## CCOc1cc(NC(=O)c2cccc(C(F)F)n2)cn2cc(C3CC3)nc12 [Example 28, N-(2-cyclopropyl-8-ethoxyimidazo[1,2-a]pyridin-6-yl)-6-(difluoromethyl)picolinamide]
[1]
  IC50: 0.043 µM

## CCOc1cc2nc(C3CCOCC3)cn2cc1NC(=O)c1ccnc(OC)n1 [Example 226, N-(7-ethoxy-2-(tetrahydro-2H-pyran-4-yl)imidazo[1,2-a]pyridin-6-yl)-2-methoxypyrimidine-4-carboxamide]
[1]
  IC50: 0.035 µM

## O=C(Nc1cn2cc(C3CCOCC3)nc2cc1OC1CCCC1)c1cccc(C(F)F)n1 [Example 175, N-(7-(cyclopentyloxy)-2-(tetrahydro-2H-pyran-4-yl)imidazo[1,2-a]pyridin-6-yl)-6-(difluoromethyl)picolinamide]
[1]
  IC50: 0.001 µM

## CCOc1cc2nc(C3CC3)cn2cc1NC(=O)c1cc2ncccn2n1 [Example 53, N-(2-cyclopropyl-7-ethoxyimidazo[1,2-a]pyridin-6-yl)pyrazolo[1,5-a]pyrimidine-2-carboxamide]
[1]
  IC50: 0.11 µM

## CCOc1cc2nc(C3CCOCC3)cn2cc1NC(=O)c1cccc(OCC(F)(F)F)n1 [Example 363, N-(7-ethoxy-2-(tetrahydro-2H-pyran-4-yl)imidazo[1,2-a]pyridin-6-yl)-6-(2,2,2-trifluoroethoxy)picolinamide]
[1]
  IC50: 0.029 µM

## COc1nc2nc(C34CC(F)(C3)C4)cn2cc1NC(=O)c1cccc(C(F)F)n1 [Example 566, 6-(difluoromethyl)-N-(2-(3-fluorobicyclo[1.1.1]pentan-1-yl)-7-methoxyimidazo[1,2-a]pyrimidin-6-yl)picolinamide 2,2,2-trifluoroacetate]
[2]
  IC50: 0.054 µM

## CCOc1cc(NC(=O)c2cccc(C(F)F)n2)cn2cc(C3CCCOC3)nc12 (single isomer, unassigned) [Example 285, 6-(difluoromethyl)-N-(8-ethoxy-2-(tetrahydro-2H-pyran-3-yl)imidazo[1,2-a]pyridin-6-yl)picolinamide]
[2]
  IC50: 0.006 µM

## O=C(Nc1cn2cc(C3CCOCC3)nc2cc1OCC1(C(F)F)CCC1)c1cccc(C(F)F)n1 [Example 198, 6-(difluoromethyl)-N-(7-((1-(difluoromethyl)cyclobutyl)methoxy)-2-(tetrahydro-2H-pyran-4-yl)imidazo[1,2-a]pyridin-6-yl)picolinamide]
[2]
  IC50: 0.001 µM

## COc1nc(NC(=O)c2ccn(CC(C)C)n2)cn2cc(C3CCOCC3)nc12 [Example 464, 1-isobutyl-N-(8-methoxy-2-(tetrahydro-2H-pyran-4-yl)imidazo[1,2-a]pyrazin-6-yl)-1H-pyrazole-3-carboxamide]
[2]
  IC50: 0.205 µM

## COc1ncccc1C(=O)Nc1cn2cc(C34COC(C)(C3)C4)nc2cc1OC(C)C(F)(F)F (single isomer, unassigned) [Example 319, 2-methoxy-N-(2-(1-methyl-2-oxabicyclo[2.1.1]hexan-4-yl)-7-((1,1,1-trifluoropropan-2-yl)oxy)imidazo[1,2-a]pyridin-6-yl)nicotinamide]
[2]
  IC50: 0.001 µM

## CC(C)Oc1nc(NC(=O)c2cnn3cccc(F)c23)cn2cc(C34COC(C)(C3)C4)nc12 [Example 482, 4-fluoro-N-(8-isopropoxy-2-(1-methyl-2-oxabicyclo[2.1.1]hexan-4-yl)imidazo[1,2-a]pyrazin-6-yl)pyrazolo[1,5-a]pyridine-3-carboxamide]
[2]
  IC50: 0.015 µM

## CC(C)Oc1nc2nc(C34COC(C)(C3)C4)cn2cc1NC(=O)c1ccn(C(F)F)n1 [Example 498, 1-(difluoromethyl)-N-(7-isopropoxy-2-(1-methyl-2-oxabicyclo[2.1.1]hexan-4-yl)imidazo[1,2-a]pyrimidin-6-yl)-1H-pyrazole-3-carboxamide]
[2]
  IC50: 0.001 µM

## COc1cc2nc(C34COC(C)(C3)C4)cn2cc1NC(=O)c1cccc(C(F)F)n1 [Example 515, 6-(difluoromethyl)-N-(7-methoxy-2-(1-methyl-2-oxabicyclo[2.1.1]hexan-4-yl)imidazo[1,2-a]pyridin-6-yl)picolinamide 2,2,2-trifluoroacetate]
[2]
  IC50: 0.001 µM

## COc1nc(NC(=O)c2cccc(C(F)F)n2)cn2cc(C3CC34CCOCC4)nc12 (stereo not drawn) [Example 558, 6-(difluoromethyl)-N-(8-methoxy-2-(6-oxaspiro[2.5]octan-1-yl)imidazo[1,2-a]pyrazin-6-yl)picolinamide 2,2,2-trifluoroacetate]
[2]
  IC50: 0.044 µM

## CC(Oc1cc2nc(C34COC(C)(C3)C4)cn2cc1NC(=O)c1ccn(C)n1)C(F)(F)F (stereo not drawn) [Example 399, 1-methyl-N-(2-(1-methyl-2-oxabicyclo[2.1.1]hexan-4-yl)-7-((1,1,1-trifluoropropan-2-yl)oxy)imidazo[1,2-a]pyridin-6-yl)-1H-pyrazole-3-carboxamide 2,2,2-trifluoracetate]
[2]
  IC50: 0.001 µM

## COc1cc(NC(=O)c2cccc(C(F)F)n2)cn2cc(C3CCCOC3)nc12 (single isomer, unassigned) [Example 270, 6-(difluoromethyl)-N-(8-methoxy-2-(tetrahydro-2H-pyran-3-yl)imidazo[1,2-a]pyridin-6-yl)picolinamide]
[2]
  IC50: 0.003 µM

## COc1ncccc1C(=O)Nc1cn2cc(C34CCC(C)(C3)OC4)nc2c(F)c1OC(C)C (stereo not drawn) [Example 435, N-(8-fluoro-7-isopropoxy-2-(1-methyl-2-oxabicyclo[2.2.1]heptan-4-yl)imidazo[1,2-a]pyridin-6-yl)-2-methoxynicotinamide 2,2,2-trifluoroacetate]
[2]
  IC50: 0.012 µM

## COc1cc(NC(=O)c2cccc(C(F)F)n2)cn2cc(C3CCCOC3)nc12 (single isomer, unassigned) [Example 269, 6-(difluoromethyl)-N-(8-methoxy-2-(tetrahydro-2H-pyran-3-yl)imidazo[1,2-a]pyridin-6-yl)picolinamide]
[2]
  IC50: 0.004 µM

## CC(C)Oc1nc2nc(C3C4COCC43)cn2cc1NC(=O)c1ccn(C(C)C)n1 (stereo not drawn) [Example 501, N-(2-(3-oxabicyclo[3.1.0]hexan-6-yl)-7-isopropoxyimidazo[1,2-a]pyrimidin-6-yl)-1-isopropyl-1H-pyrazole-3-carboxamide hydrochloride]
[2]
  IC50: 0.002 µM

## CCOc1cc2nc(C3CCOCC3)cn2cc1NC(=O)c1cccc(C2CCOC2)n1 (stereo not drawn) [Example 367, N-(7-ethoxy-2-(tetrahydro-2H-pyran-4-yl)imidazo[1,2-a]pyridin-6-yl)-6-(tetrahydrofuran-3-yl)picolinamide]
[2]
  IC50: 0.011 µM

## CC12CC(c3cn4cc(NC(=O)c5cccc(C(F)F)n5)nc(OCc5ccccc5)c4n3)(CO1)C2 [Example 199, N-(8-(benzyloxy)-2-(1-methyl-2-oxabicyclo[2.1.1]hexan-4-yl)imidazo[1,2-a]pyrazin-6-yl)-6-(difluoromethyl)picolinamide]
[2]
  IC50: 0.016 µM

## COc1ncccc1C(=O)Nc1cn2cc(C34COC(C)(C3)C4)nc2cc1OC(C)C(F)(F)F (single isomer, unassigned) [Example 318, 2-methoxy-N-(2-(1-methyl-2-oxabicyclo[2.1.1]hexan-4-yl)-7-((1,1,1-trifluoropropan-2-yl)oxy)imidazo[1,2-a]pyridin-6-yl)nicotinamide]
[2]
  IC50: 0.005 µM

## O=C(Nc1cn2cc(C3CCOCC3)nc2cc1OC1CCOC1)c1cccc(C(F)F)n1 (stereo not drawn) [Example 183, 6-(difluoromethyl)-N-(2-(tetrahydro-2H-pyran-4-yl)-7-((tetrahydrofuran-3-yl)oxy)imidazo[1,2-a]pyridin-6-yl)picolinamide]
[2]
  IC50: 0.001 µM

## COc1cccc(C(=O)Nc2cn3cc(C45COC(C)(C4)C5)nc3c(OC)n2)n1 [Example 448, 6-methoxy-N-(8-methoxy-2-(1-methyl-2-oxabicyclo[2.1.1]hexan-4-yl)imidazo[1,2-a]pyrazin-6-yl)picolinamide 2,2,2-trifluoroacetate]
[2]
  IC50: 0.023 µM

## O=C(Nc1cn2cc(C3CCOCC3)nc2cc1OC(F)F)c1cccc(C(F)F)n1 [Example 394, N-(7-(difluoromethoxy)-2-(tetrahydro-2H-pyran-4-yl)imidazo[1,2-a]pyridin-6-yl)-6-(difluoromethyl)picolinamide]
[2]
  IC50: 0.001 µM

## COc1cc(NC(=O)c2cccc(C(F)F)n2)cn2cc(C3CCCOC3)nc12 (racemic) [Example 268, 6-(difluoromethyl)-N-(8-methoxy-2-(tetrahydro-2H-pyran-3-yl)imidazo[1,2-a]pyridin-6-yl)picolinamide]
[2]
  IC50: 0.002 µM
